# Test results from patent US20210322350A1, “EXOGENOUS KETONE SUPPLEMENTATION COMPOSITIONS, SYSTEMS AND METHODS” (Ketone Clarity LLC, priority 2020, published 2021).
# Legend:
# [1] = test system: HDAC; conditions: cited from earlier work
# [2] = consumed at 30-35 g of product; short lasting; cited from earlier work
# [3] = 750 mg/kg by gavage 24 hours after 0.5 or 6 Gy radiation; cited from earlier work
# [4] = Blood ketone levels after exogenous ketone supplementation; type: in vivo, human
# Source text: Technical effect: raising blood ketone levels by currently known methods. FIG. 6 is a graphical illustration of exogenous ketone blood levels by three precursors using Medium Chain Triglycerides, ketone salts and ketone esters. […] In the healthy adult, blood ketone levels can be naturally raised from a 0.0 mmol/L baseline to 0.5 mmol/L while following a normal diet.
# While MCT oil can raise blood ketone levels for a long duration, often the rise in ketone levels is nominal at best with a 0.5 mmol/L increase. Ketone salts can raise blood ketone levels to 1.5 mmol/L, but often do so with a metabolic load of heavy salt ingestion along with an undesired racemic mixture of both ‘D’ and ‘L’ isomers of BHB. The so called “ketone ester” synthetic products can raise blood ketone levels to 2-4 mmol/L when consumed at 30-35 g of product but the result is often short lasting.
# FIG. 7 is a graphical illustration of D-BHB exogenous ketone blood levels.
# (§1) FIG. 9 is a graphical illustration of blood levels of ketones and glucose resulting from the claimed invention. In the graphical illustration, body ketone levels increase from 1.4 mmol/L to 2.7 mmol/L after 50 minutes of consuming 10 g of D-BHB. […]
# [5] = Blood glucose levels after D-BHB consumption; type: in vivo, human
# Procedure: FIG. 9 is a graphical illustration of blood levels of ketones and glucose resulting from the claimed invention. In the graphical illustration, body ketone levels increase from 1.4 mmol/L to 2.7 mmol/L after 50 minutes of consuming 10 g of D-BHB. While ketone levels increase, glucose levels are decreased from 5.2 mmol/L to 4.8 mmol/L. While blood ketone rates can change rapidly as ketones are consumed through exercise or metabolic activity, the lowering of glucose often happens over a prolonged period of time. Consequently, this example is a good introduction to the regulatory effects of the ketone body D-BHB which are independent of and often outlast the energy benefits provided by exogenous ketones even after they are consumed by the body.
# FIG. 14 is a graphical illustration of lowered blood glucose measured in mmol/L as a result of daily 10 g consumption resulting from enhanced D-BHB levels according to the claimed invention. Diet plays a key role in the onset and progression of Type II diabetes and pre-diabetic conditions. The hallmark indication of the progression of this disease is identified through measurement of blood glucose levels. […] In a preferred embodiment 10-20 g of D-BHB are consumed, but more or less can be utilized in other embodiments of the claimed invention.
# [6] = Glucose/Ketone Index (GKI); type: in vivo, human
# Procedure: Introducing GKI: Measuring Glucose vs Ketones. FIG. 8 is a schematic illustration of the Glucose/Ketone Index. When measuring both blood ketone levels and blood glucose levels, taking reference from the Glucose/Ketone Index (GKI) can help guide a user to achieve therapeutic benefits according to the claimed invention. The Glucose/Ketone Index is measured by dividing the blood level of glucose by the blood level of ketones measured in mmol/L. By way of illustration, a healthy individual not following the ketogenic diet could have glucose levels of 5.0 mmol/L and ketone levels of 0.1 mmol/L. According to the GKI they would have a value of greater than 9 and as such would not be in ketosis. An individual following the ketogenic diet and potentially supplementing their diet with ketone salts or MCT oil may have a glucose level of 5.6 mmol/L and ketone level of 1.3 mmol/L, resulting in a GKI of 4.3. This moderate ketosis level can be useful for managing obesity and diabetes.
# as §1
# [7] = Sleep cycles (deep and light sleep time) with D-BHB taken prior to sleep; type: in vivo; conditions: over several sleep cycles
# Source text: During deep sleep, a variety of functions take place in the mind and body. During deep sleep not only does physical recovery occur. The brain recuperates as well during which memories are consolidated and learning and emotions are processed. Physiologically, blood sugar levels and metabolism balance out and the immune system is energized. FIG. 11 is a graphical illustration of improved sleep time resulting from enhanced D-BHB levels according to the claimed invention based on the data detailed in Table 1.
# The data gathered in Table 1 reflects unaided sleep cycles in bold together with sleep aided by 10-20 g D-BHB which is reflective of a preferred embodiment of the claimed invention. On average, unaided sleep results in approximately 1.5 hours of deep sleep in an eight hour sleep cycle. […] In a preferred and foreseen embodiment of the claimed invention, improved deep sleep is achieved as a result of exogenous ketone D-BHB supplementation.
# [8] = Systolic and diastolic blood pressure after D-BHB ingestion; type: in vivo; conditions: 10 g; measurable within an hour, remains several hours
# Source text: FIG. 12 is a graphical illustration of improved blood pressure resulting from enhanced D-BHB levels according to the claimed invention. In addition to increasing blood ketones and lowering blood glucose, consumption of exogenous D-BHB according to the claimed invention also has a direct and measurable impact on lowering blood pressure. […] Blood pressure reduction is measurable within an hour of ingestion and is positive effects of lower blood pressure remain for several hours afterwards.
# [9] = Blood oxygen levels before and after D-BHB; type: in vivo; conditions: 30 minutes after 10 g; from 80%
# Source text: FIG. 13 is a graphical illustration of enhanced blood oxygen resulting from enhanced D-BHB levels according to the claimed invention.
# [10] = Sensation of hunger after waking; type: in vivo; conditions: several hours after rising in the morning
# Source text: FIG. 15 is a graphical illustration of lowered hunger resulting from enhanced D-BHB levels according to the claimed invention. While the sensation of hunger itself arises from a complex interplay of glucose, insulin and the hormone ghrelin, identification and measurement of hunger is easy and straightforward according to the claimed invention. Hunger is often a key reason why diet attempts such as attempting to follow the ketogenic diet or other diets fail. Hunger is also a significant impediment to individuals attempting to undergo a fasting state for health or other purposes. While even consuming a moderate amount such as 5 g of exogenous natural D-BHB ketone supplement can reduce the sensation of hunger, regular consumption of larger amounts such as 10 g-20 g represent a preferred embodiment of the claimed invention. […] Hunger reduction, however, is provided at any time of day according to the claimed invention and is not just morning dependent.
# [11] = Physical endurance on a measured exercise course; type: in vivo
# Source text: FIG. 16 is a graphical illustration of improved physical endurance resulting from enhanced D-BHB levels according to the claimed invention. While understanding of the mechanism of ketone enhancement of physical endurance is only beginning, there is a direct and measurable benefit of consumption of natural D-Beta HydroxyButyric acid to enhance physical exertion and post-exercise activity recovery. FIG. 16 illustrates the physical performance parameter in which a subject with and without natural D-BHB ketone supplementation is impeded by shortness of breath and muscle pain and drop in performance owing to lactic acid build-up in the body. Without natural D-BHB ketone supplementation on a measured exercise course pain and fatigue will occur after 27 minutes. […] While preferred consumption of natural D-BHB can range from 10 g-30 g of natural D-BHB, lesser or greater amounts may also be safely consumed for exercise improvement and benefits.
# [12] = Anti-depression and anti-anxiety mood enhancement; type: in vivo; conditions: in the absence of anti-depressant and/or anti-anxiety medication; at least 10 g at least twice per day
# Source text: FIG. 18 is a graphical illustration of improved mental anti-depression and anti-anxiety activity resulting from enhanced D-BHB levels according to the claimed invention. […] While preferred consumption of natural D-BHB can range from 10 g-30 g of natural D-BHB, a best illustrative example reflects at least 10 g exogenous D-BHB supplementation at least twice per day.
# [13] = Bone density measurements during D-BHB consumption; type: in vivo; conditions: 10 g daily; period during which bone loss was expected
# Source text: FIG. 20 is a graphical illustration of sustained bone protection resulting from enhanced D-BHB levels according to the claimed invention. Loss of bone density can be statistically predicted and measured during specific time of life events such as post-menopause as well as during space missions for astronauts in space. […] Similar benefits against bone loss for space based applications are indicated and expected with consumption of 20 g of exogenous D-BHB daily.
# [14] = Gout pain and inflammation; type: in vivo
# Source text: FIG. 21 is a graphical illustration of gout reduction resulting from enhanced D-BHB levels according to the claimed invention. Owing to the role of exogenous natural D-BHB as a regulatory element of the NLRP3 inflammasome, inflammations are reduced as a direct result of exogenous D-BHB supplementation. In a preferred embodiment, 10 g or more of D-Beta HydroxyButyric acid is consumed daily to reduce gout flare-ups.
compound,measurement,setting,value
CC(O)CC(=O)[O-].[Na+] (centres unmarked) [b-OHB],renal dysfunction,[1]; IR-injured kidney,ameliorated renal dysfunction
same,HDAC activity in the IR-injured kidney,[1],inhibited HDAC activity
"C[C@@H](O)CCOC(=O)C[C@@H](C)O [ketone ester, (R)-3-hydroxybutyl (R)-3-hydroxybutyrate]",blood ketone levels raised to,[2],2 to 4 mmol/L
same,radiation-induced decrease of reticulocyte/erythrocyte ratio in bone marrow,[3],significantly attenuated
"CC(O)CC(=O)O [D-BHB, D-Beta-HydroxyButyric Acid]",body ketone level,"[4]; 50 minutes after consuming 10 g, from 1.4 mmol/L",2.7 mmol/L
same,blood ketone levels versus existing methods,[4]; consumption of 10-30 g,higher blood ketone levels
same,glucose level,"[5]; after consuming 10 g, from 5.2 mmol/L",4.8 mmol/L
same,blood glucose level,"[5]; daily 10 g consumption, baseline over 7 mmol/L",≤ 4 mmol/L
same,Glucose/Ketone Index (GKI),[6]; after consuming 10 g,1.8
same,GKI levels,[6]; regular D-BHB consumption,1-3
same,extension of deep sleep,[7],extended by over an hour
same,systolic and diastolic blood pressure,[8],measurable decrease
same,blood oxygen level,[9],99%
same,sensation of hunger,[10],greater reduction to even omission of hunger sensations
same,post-workout recovery time,[11],markedly reduced
same,range of performance before pain and fatigue,[11]; 27 minutes without supplementation,44 min
same,cognitive mood enhancement,[12],cognitive improvement
same,bone density,[13],bone density health and retention
same,gout pain,"[14]; 15 g, in three days",from extreme to very moderate
same,gout inflammation,"[14]; continued daily consumption, in less than one week",entirely removed gout inflammation
